# Where “and” joins values, the source holds several entries; their conditions need not be identical. Equal entries are not always repeated.
# Columns and labels:
# [1] = system: SARS-COV-2 virus (USA WA1/2020); test: ACE2 mouse model, lung tissue RT-qPCR viral titer; type: in vivo; conditions: K18-hACE2 mice; for Lung Tissue RT-qPCR Viral Titer Log10, Group Mean: Day 6, 7 animals
# [2] = system: SARS-COV-2 virus (USA WA1/2020); test: ACE2 mouse model, TCID50 analysis of lung samples; type: in vivo; conditions: K18-hACE2 mice, Day 6 lung; for Titer, TCID50 analysis of lung samples, Group Mean: 7 animals; for Titer, TCID50 analysis of lung samples, individual animals: scored on Vero C1008 (E6) cells after 120 hours
# Calu-3 = test: Cytotoxicity of Imatinib in Calu-3 cells; conditions: any concentration tested (up to 100 μM)
# [3] = system: SARS-COV-2 (USA-WA1/2020 Isolate); type: cell-based; conditions: Calu-3 cells, Mebendazole 2.3 nM-5000 nM
# [4] = system: human lung cancer (Calu-3) cells
# [5] = cited from earlier work
# in vitro = conditions: human
# [6] = pre-clinical models, oral administration; cited from earlier work
# [7] = Day 6, 50 mg/kg/day Mebendazole and/or 100 mg/kg/day Imatinib, oral gavage once daily
Compound,"Lung Tissue RT-qPCR Viral Titer Log10, Group Mean [1]","Lung Tissue RT-qPCR Viral Titer Log10, individual animals [1, 7]","Lung Tissue RT-qPCR Viral Titer, individual animals [1, 7]","Titer, TCID50 analysis of lung samples, Group Mean [2]","Titer, TCID50 analysis of lung samples, individual animals [2]",cytotoxicity (Vero 76 cells),cytotoxicity (Calu-3),Inhibition of SARS-COV-2 (maximum reached) [3],inhibition of cell viability ([4]; all tested concentrations up to 5000 nM),"CC50 ([4]; read-out: CC50 (cytotoxic concentration), estimated from absence of cytotoxicity up to 5000 nM)",plasma concentrations ([5]; 100 mg twice daily for three consecutive days),higher exposure to steady-state ([5]; long-term oral administration),oral dose excreted in urine ([5]; oral dose),oral bioavailability ([5]; reported),CC50 (in vitro),bioavailability [6]
Cc1ccc(NC(=O)c2ccc(CN3CCN(C)CC3)cc2)cc1Nc1nccc(-c2cccnc2)n1 [Imatinib],7.8,7.9 (2×) and 8.0 and 7.3 and 8.5 and 7.6 and 7.7,7.80E+07 and 9.13E+07 and 2.15E+07 and 7.53E+07 and 3.12E+08 and 3.67E+07 and 5.37E+07,7.4 Log10 TCID50/mL,8.0 Log10 TCID50/mL and 6.5 Log10 TCID50/mL and 8.3 Log10 TCID50/mL and 7.5 Log10 TCID50/mL and 5.3 Log10 TCID50/mL and 7.6 Log10 TCID50/mL and 8.5 Log10 TCID50/mL,no cytotoxicity was observed,no cytotoxicity was observed,–,–,–,–,–,–,–,–,–
COC(=O)Nc1nc2ccc(C(=O)c3ccccc3)cc2[nH]1 [Mebendazole],7.6,–,–,5.8 Log10 TCID50/mL,6.0 Log10 TCID50/mL and 5.3 Log10 TCID50/mL (2×) and 4.8 Log10 TCID50/mL and 5.5 Log10 TCID50/mL and 7.3 Log10 TCID50/mL and 6.5 Log10 TCID50/mL,–,–,100%,~0%,> 5 µM,≤ 0.03 μg/mL and ≤ 0.1 μM,~3 fold,< 2%,17%,> 5 µM,about 15%

# Reference: patent US20250281461A1 (The Board of Supervisors of Louisiana State University and …, priority 2021, published 2025)
